Laboratory results taken from US20250134870A1, “PATHWAY MODULATOR, PHARMACEUTICAL COMPOSITION HAVING SAME, USE THEREOF, AND THERAPEUTIC METHOD USING SAME” (Jiangsu Yahong Meditech Co., Ltd., priority 2021, published 2025).
Like-named read-outs stand apart in the source and are kept apart here.

Tests used:
[1] = system: mesenteric lymph node immune cell subpopulations; assay: Flow cytometry of immune cell subpopulations and cytokines in mesenteric lymph nodes of DSS colitis mice (Examples 2, 4); assay type: in vivo, C57BL/6J mice; conditions: 30 mg/kg PO QD × 8 days (Test group 1#) vs solvent group
Procedure: The experimental endpoint was 24 hours after administration on Day 8 for the positive drug control group and the Test group 1 #to Test group 7 #of Example 1; the experimental endpoint of the normal group and the solvent group was the same as that of the positive drug control group and Test group 1 #to Test group 7 #.
At the experimental endpoint, mesenteric lymphatic nodes were collected and treated as follows:
1) The mesenteric lymph nodes were gently grinded and filtered with a […] strainer (BD bioscience, Catalog No. 352350) to obtain a cell suspension, and the cells were counted.
2) The cells were suspended in a suspension solution (the suspension solution was prepared by the following process: diluting the cell activation mixture with a mixture of 90 v % 1640 medium and 10 v % fetal bovine serum to a concentration of 1×), the cell density was adjusted to 2.5×10^7/mL, and the cells were incubated at 37° C. for 5 hours. 3) The cells were washed with Dulbecco's Phosphate Buffered Saline, and stained with viable/dead stain (stain No. 12 in Table 5) at room temperature for 15 min to distinguish between viable cells and dead cells; the cells were washed with staining buffer (prepared by mixing fetal bovine serum and Dulbecco's Phosphate Buffered Saline at a volume ratio of 2:98), Fc block working solution (prepared by mixing Fc block and staining buffer at a volume ratio of 1:200) was added, and the cells were incubated at room temperature for 15 minutes.
4) The cells were surface labeled with 100 μL of antibody staining solution for flow cytometry without washing and incubated at 4° C. for 30 minutes.
5) The cells were washed once with staining buffer, 100 μL of cell fixative solution was added, and the cells were incubated at 4° C. overnight.
6) 200 μL of cell permeabilization solution was added and incubated at 4° C. for 30 minutes.
7) After washing with 250 μL of cell permeabilization solution, the cells were suspended with 100 μL of staining buffer and fluorescence was detected with a BD LSRFortessa instrument.
8) The cell subpopulations analyzed by flow cytometry included CD4+ T cell subpopulation, IL-17A+CD4+ T cell subpopulation, IFN-γ+CD4+ T cell subpopulation, TNF-α+CD4+ T cell subpopulation, CD25+FOXP3+ Treg cell subpopulation; CD8+ T cell subpopulation, IL-17A+CD8+ T cell subpopulation, IFN-γ+CD8+ T cell subpopulation, TNF-α+CD8+ T cell subpopulation; CD69+B220+ B cell subpopulation and NK1.1+CD107a+ NK cell subpopulation.

peripheral blood cells = assay: Bleomycin-induced skin fibrosis in mice: blood routine test of peripheral blood (Example 5); assay type: in vivo, male C57BL/6 mice
Procedure: Animals were weighed at the experimental endpoints and the body weight was recorded to calculate the volume of administration. 6 h after dosing, firstly, whole blood was collected from the orbital venous plexus of mice and subjected to blood routine test using an automated Hematology analyzer (Sysmex XS-800i). The specific test steps were as follows: the blood sample in the test tube was thoroughly mixed before testing; the sample was placed under the sampling needle, then injected by pressing the start button, and removed after indicator light of the instrument was off; the instrument started to automatically test the sample and output the results.

[2] = system: 2,4-dinitrobenzenesulfonic acid (DNBS)-induced colitis; assay: DNBS-induced colitis in rats: macroscopic evaluation of colon on Day 7 (colon length, weight, ulcer area, CW/CL, CW/BW, CW/CL/BW); assay type: in vivo, Wistar rats; conditions: for inhibition at 3 mg/kg / inhibition at 10 mg/kg / inhibition at 30 mg/kg: Rattus norvegicus, 168 h; for BW / CW/BW ×100 / Ulcer area / Ulcer length / Ulcer width: mean
Procedure: (3) Colon observation: after the end of the experiment, all animals were anesthetized with Zoletil (intravenous injection, 25 mg/kg) and the abdominal cavity was opened. Blood was collected from the abdominal aorta with EDTA anticoagulation (centrifugation conditions: 4° C., 2,000 g, 10 min). After the animals were sacrificed by bloodletting, the colon (from the cecum to the anus) was dissected and the colon length was measured immediately. The colon was longitudinally incised and rinsed until clean. Then the colon weight and ulcer area were recorded, and the colon was photographed as a whole and divided into three parts, among which two parts were stored at −80° C. after flash freezing with liquid nitrogen for MPO and cytokine detection, and the other part of colon was fixed with 10% neutral buffered formalin. If the ulcer was irregularly shaped, it could be considered as rectangular, and then its length and width were measured for ulcer area assessment. Ulcer area (cm^2)=ulcer length (cm)×ulcer width (cm).

congestive heart failure = conditions: cited from earlier work
[3] = 100 mg/kg PO QD, 28 days (Test group 3#) vs solvent group
[4] = G4 Test group 1#, 3 mg/kg PO QD × 7
[5] = G5 Test group 2#, 10 mg/kg PO QD × 7
[6] = G6 Test group 3#, 30 mg/kg PO QD × 7

Which “proportion of CD4+ T cell subpopulation” value [1] does the source give for `NCc1c[nH]c(=S)n1[C@H]1CCc2c(F)cc(F)cc2C1` [Nepicastat] here?
Its value is “reduce the proportion”.

What about the “proportion of CD25+FOXP3+ Treg cell subpopulation” value [1] of the same molecule?
Its value is “increase the proportion”.

And the “secretion of IFN-γ by CD4+ T cell subpopulation” value [1]?
Its value is “reduce the secretion”.

What about the “secretion of IL-17A by CD4+ T cell subpopulation” value [1] of the same molecule?
The value was “reduce the secretion”.

What about the “secretion of TNF-α by CD4+ T cell subpopulation” value [1] of the same molecule?
The value was “reduce the secretion”.

And the “lymphocytes in peripheral blood” value (peripheral blood cells; [3])?
The value was “significant differences in reducing”.

What about the “monocytes in peripheral blood” value (peripheral blood cells; [3]) of the same molecule?
Its value is “significant differences in reducing”.

What about the “neutrophils in peripheral blood” value (peripheral blood cells; [3]) of the same molecule?
Its value is “significant differences in reducing”.

What about the “number of increased inflammatory cells in peripheral blood after bleomycin stimulation” value (peripheral blood cells; 50 and 100 mg/kg PO QD, 28 days (Test groups 2#, 3#)) of the same molecule?
Its value is “reduce the number of increased inflammatory cells in peripheral blood”.

What about the inhibition at 3 mg/kg ([2]; 3 mg/kg (Test group 1#), read-out: inhibition rate of CW/BW) of the same molecule?
The inhibition at 3 mg/kg was 40.2%.

And the inhibition at 3 mg/kg ([2]; 3 mg/kg (Test group 1#), read-out: inhibition rate of CW/CL)?
The inhibition at 3 mg/kg was 30.8%.

And the inhibition at 3 mg/kg ([2]; 3 mg/kg (Test group 1#), read-out: inhibition rate of CW/CL/BW)?
The inhibition at 3 mg/kg was 33%.

What about the inhibition at 10 mg/kg ([2]; 10 mg/kg (Test group 2#), read-out: inhibition rate of CW/BW) of the same molecule?
The inhibition at 10 mg/kg was 47.1%.

And the inhibition at 10 mg/kg ([2]; 10 mg/kg (Test group 2#), read-out: inhibition rate of CW/CL)?
Its inhibition at 10 mg/kg is 43.8%.

And the inhibition at 10 mg/kg ([2]; 10 mg/kg (Test group 2#), read-out: inhibition rate of CW/CL/BW)?
The inhibition at 10 mg/kg was 45%.

And the inhibition at 30 mg/kg ([2]; 30 mg/kg (Test group 3#), read-out: inhibition rate of CW/BW)?
The inhibition at 30 mg/kg was 39.9%.

What about the inhibition at 30 mg/kg ([2]; 30 mg/kg (Test group 3#), read-out: inhibition rate of CW/CL) of the same molecule?
The inhibition at 30 mg/kg was 26.7%.

And the inhibition at 30 mg/kg ([2]; 30 mg/kg (Test group 3#), read-out: inhibition rate of CW/CL/BW)?
Its inhibition at 30 mg/kg is 27.1%.

What about the inhibition at 3 mg/kg ([2]; G4 Test group 1#, 3 mg/kg PO QD × 7, read-out: IR1 (inhibition rate 1, CW/CL/BW)) of the same molecule?
The inhibition at 3 mg/kg was 33%.

And the inhibition at 3 mg/kg ([2]; G4 Test group 1#, 3 mg/kg PO QD × 7, read-out: IR2 (inhibition rate 2, CW/BW))?
The inhibition at 3 mg/kg was 40.2%.

What about the inhibition at 3 mg/kg ([2]; G4 Test group 1#, 3 mg/kg PO QD × 7, read-out: IR3 (inhibition rate 3, CW/CL)) of the same molecule?
The inhibition at 3 mg/kg was 30.8%.

What about the inhibition at 10 mg/kg ([2]; G5 Test group 2#, 10 mg/kg PO QD × 7, read-out: IR1 (inhibition rate 1, CW/CL/BW)) of the same molecule?
Its inhibition at 10 mg/kg is 45%.

What about the inhibition at 10 mg/kg ([2]; G5 Test group 2#, 10 mg/kg PO QD × 7, read-out: IR2 (inhibition rate 2, CW/BW)) of the same molecule?
Its inhibition at 10 mg/kg is 47.1%.

And the inhibition at 10 mg/kg ([2]; G5 Test group 2#, 10 mg/kg PO QD × 7, read-out: IR3 (inhibition rate 3, CW/CL))?
Its inhibition at 10 mg/kg is 43.8%.

What about the inhibition at 30 mg/kg ([2]; G6 Test group 3#, 30 mg/kg PO QD × 7, read-out: IR1 (inhibition rate 1, CW/CL/BW)) of the same molecule?
The inhibition at 30 mg/kg was 27.1%.

What about the inhibition at 30 mg/kg ([2]; G6 Test group 3#, 30 mg/kg PO QD × 7, read-out: IR2 (inhibition rate 2, CW/BW)) of the same molecule?
Its inhibition at 30 mg/kg is 39.9%.

And the inhibition at 30 mg/kg ([2]; G6 Test group 3#, 30 mg/kg PO QD × 7, read-out: IR3 (inhibition rate 3, CW/CL))?
Its inhibition at 30 mg/kg is 26.7%.

And the BW [2, 4]?
Its BW is 168.65 g.

What about the “CW/BW ×100” value [2, 4] of the same molecule?
Its value is 1.05.

What about the Ulcer area [2, 4] of the same molecule?
Its Ulcer area is 1.36 cm^2.

What about the Ulcer length [2, 4] of the same molecule?
The Ulcer length was 1.08 cm.

What about the Ulcer width [2, 4] of the same molecule?
The Ulcer width was 0.87 cm.

And the BW [2, 5]?
Its BW is 169.54 g.

And the “CW/BW ×100” value [2, 5]?
The value was 1.01.

What about the Ulcer area [2, 5] of the same molecule?
The Ulcer area was 1.17 cm^2.

What about the Ulcer length [2, 5] of the same molecule?
The Ulcer length was 0.97 cm.

And the Ulcer width [2, 5]?
The Ulcer width was 0.73 cm.

What about the BW [2, 6] of the same molecule?
The BW was 164.62 g.

And the “CW/BW ×100” value [2, 6]?
The value was 1.05.

And the Ulcer area [2, 6]?
The Ulcer area was 1.35 cm^2.

What about the Ulcer length [2, 6] of the same molecule?
The Ulcer length was 1.09 cm.

And the Ulcer width [2, 6]?
Its Ulcer width is 0.95 cm.

And the “effect in the treatment of heart failure” value (congestive heart failure; further clinical studies)?
Its value is “no effect in the treatment of heart failure”.

What about the tolerability (congestive heart failure; patients, congestive heart failure) of the same molecule?
The tolerability was “well tolerated in patients”.
